# Experimental data: ChEMBL document CHEMBL1125524, “Adenosine A1 antagonists. 2. Structure-activity relationships on diuretic activities and protective effects against acute renal failure” (J Med Chem, 1992)
# Legend:
# Rattus norvegicus [1] = assay: Ratio of urinary excretion value (urinary volume) in treated rats to that in control rats, at a peroral dose of 0.1 mg/Kg; assay type: functional, Urine
# Rattus norvegicus [2] = assay: Percent inhibition of serum creatinine by the compound given as ratio of Cr value in treated to vehicle treated ones after intraperitoneal administration of 0.1 mg/kg of compound to rats(vehicle 5.08+/-0.14); assay type: functional; conditions: ip
# Rattus norvegicus [3] = assay: Oral diuretic activity was measured after oral administration of 0.01 mg/kg to rats(control volume is 1.15+/-0.17); assay type: functional, Urine
# Rattus norvegicus [4] = assay: Ratio of sodium ion/potassium ion concentration in treated rats to that in control rats, at a peroral dose of 0.1 mg/Kg; assay type: functional
# Rattus norvegicus [5] = assay: Ratio of sodium ion/potassium ion concentration in treated rats to that in control rats, at a peroral dose of 0.01 mg/Kg; assay type: functional
# Rattus norvegicus [6] = assay: Urea nitrogen concentration measured after intraperitoneal administration of 0.01 mg/kg of compound to rats(vehicle 143.9+/-12.2); assay type: functional
# Rattus norvegicus [7] = assay: Percent inhibition of Urea nitrogen by the compound given as ratio of UN value in treated to vehicle treated ones after intraperitoneal administration of 1 mg/kg of compound to rats(vehicle 171.5+/-7.7); assay type: functional; conditions: ip
# Rattus norvegicus [8] = assay: Effect on urinary excretion potassium and sodium after oral administration of 0.01 mg/kg to rats(potassium and sodium excretion in control rat is 0.191+/-0.020); assay type: functional, Urine
# Rattus norvegicus [9] = assay: Percent inhibition of Urea nitrogen by the compound given as ratio of UN value in treated to vehicle treated ones after intraperitoneal administration of 0.1 mg/kg of compound to rats(vehicle 165.3+/-4); assay type: functional; conditions: ip
# Rattus norvegicus [10] = assay: Oral diuretic activity was measured after oral administration of 1.6 mg/kg to rats(control volume is 0.93+/-0.03); assay type: functional, Urine
# Rattus norvegicus [11] = assay: Effect on urinary excretion potassium and sodium after oral administration of 0.1 mg/kg to rats(potassium and sodium excretion in control rat is 0.179+/-0.038); assay type: functional, Urine
# Rattus norvegicus [12] = assay: Ratio of urinary excretion value (Na+ concentration) in treated rats to that in control rats, at a peroral dose of 0.1 mg/Kg; assay type: functional, Urine
# Rattus norvegicus [13] = assay: Percent inhibition of serum creatinine by the compound given as ratio of Cr value in treated to vehicle treated ones after intraperitoneal administration of 1 mg/kg of compound to rats(vehicle 4.27+/-0.24); assay type: functional; conditions: ip
# Rattus norvegicus [14] = assay: Ratio of urinary excretion value (urinary volume) in treated rats to that in control rats, at a peroral dose of 0.01 mg/Kg; assay type: functional, Urine
# Rattus norvegicus [15] = assay: Percent inhibition of Urea nitrogen by the compound given as ratio of UN value in treated to vehicle treated ones after intraperitoneal administration of 0.01 mg/kg of compound to rats(vehicle 143.9+/-12.2); assay type: functional; conditions: ip
# Rattus norvegicus [16] = assay: Effect on urinary excretion potassium and sodium after oral administration of 1.6 mg/kg to rats(potassium and sodium excretion in control rat is 0.173+/-0.015); assay type: functional, Urine
# Rattus norvegicus [17] = assay: Serum creatinine concentration measured after intraperitoneal administration of 1 mg/kg of compound to rats(vehicle 4.27+/-0.24); assay type: functional
# Rattus norvegicus [18] = assay: Serum creatinine concentration measured after intraperitoneal administration of 0.1 mg/kg of compound to rats(vehicle 5.08+/-0.14); assay type: functional
# Rattus norvegicus [19] = assay: Ratio of urinary excretion value (Na+ concentration) in treated rats to that in control rats, at a peroral dose of 0.01 mg/Kg; assay type: functional, Urine
# Adenosine A2 receptor = Adenosine A2 receptor (Rattus norvegicus, UniProt P29276+P30543)
# Rattus norvegicus [20] = assay: Percent inhibition of serum creatinine by the compound given as ratio of Cr value in treated to vehicle treated ones after intraperitoneal administration of 0.01 mg/kg of compound to rats(vehicle 4.09+/-0.39); assay type: functional; conditions: ip
# Rattus norvegicus [21] = assay: Oral diuretic activity was measured after oral administration of 0.1 mg/kg to rats(control volume is 0.75+/-0.12); assay type: functional, Urine
# Rattus norvegicus [22] = assay: Ratio of urinary excretion value (urinary volume) in treated rats to that in control rats, at a peroral dose of 1.6 mg/Kg; assay type: functional, Urine
# Rattus norvegicus [23] = assay: Ratio of sodium ion/potassium ion concentration in treated rats to that in control rats, at a peroral dose of 1.6 mg/Kg; assay type: functional
# Adenosine receptor A1 = molecular target: T1, Adenosine receptor A1 (Cavia porcellus, UniProt P47745)
# T1 sequence (P47745 whole entry): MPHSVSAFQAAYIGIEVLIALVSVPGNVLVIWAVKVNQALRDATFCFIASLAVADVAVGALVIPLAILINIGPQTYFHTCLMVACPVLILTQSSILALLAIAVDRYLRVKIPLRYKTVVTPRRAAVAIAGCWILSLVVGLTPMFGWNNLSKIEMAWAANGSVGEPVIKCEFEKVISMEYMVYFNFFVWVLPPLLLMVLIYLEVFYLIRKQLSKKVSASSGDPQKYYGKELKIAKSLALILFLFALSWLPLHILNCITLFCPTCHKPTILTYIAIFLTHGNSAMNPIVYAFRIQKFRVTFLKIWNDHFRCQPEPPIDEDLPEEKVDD
# Description: Binding affinity against adenosine A1 receptor in guinea pig forebrain membranes using N6-[3H]cyclohexyladenosine as radioligand
# Rattus norvegicus [24] = assay: Urea nitrogen concentration measured after intraperitoneal administration of 0.1 mg/kg of compound to rats(vehicle 165.3+/-4); assay type: functional
# Rattus norvegicus [25] = assay: Ratio of urinary excretion value (Na+ concentration) in treated rats to that in control rats, at a peroral dose of 1.6 mg/Kg; assay type: functional, Urine
# Rattus norvegicus [26] = assay: Serum creatinine concentration measured after intraperitoneal administration of 0.01 mg/kg of compound to rats(vehicle 4.09+/-0.39); assay type: functional
# Rattus norvegicus [27] = assay: Urea nitrogen concentration measured after intraperitoneal administration of 1 mg/kg of compound to rats(vehicle 171.5+/-7.7); assay type: functional
# Rattus norvegicus [28] = assay: Percent inhibition of serum creatinine by the compound given as ratio of Cr value in treated to vehicle treated ones after intraperitoneal administration of 0.1 mg/kg of compound to rats(vehicle 3.62+/-0.23); assay type: functional; conditions: ip
# Rattus norvegicus [29] = assay: Percent inhibition of Urea nitrogen by the compound given as ratio of UN value in treated to vehicle treated ones after intraperitoneal administration of 1 mg/kg of compound to rats(vehicle 151.5+/-7.4); assay type: functional; conditions: ip
# Rattus norvegicus [30] = assay: Ratio of sodium ion/potassium ion concentration in treated rats to that in control rats, at a peroral dose of 0.4 mg/Kg; assay type: functional
# Rattus norvegicus [31] = assay: Urea nitrogen concentration measured after intraperitoneal administration of 1 mg/kg of compound to rats(vehicle 151.5+/-7.4); assay type: functional
# Rattus norvegicus [32] = assay: Percent inhibition of serum creatinine by the compound given as ratio of Cr value in treated to vehicle treated ones after intraperitoneal administration of 1 mg/kg of compound to rats(vehicle 4.82+/-0.17); assay type: functional; conditions: ip
# Rattus norvegicus [33] = assay: Oral diuretic activity was measured after oral administration of 1.6 mg/kg to rats(control volume is 0.97+/-0.05); assay type: functional, Urine
# Rattus norvegicus [34] = assay: Serum creatinine concentration measured after intraperitoneal administration of 0.1 mg/kg of compound to rats(vehicle 3.62+/-0.23); assay type: functional
# Rattus norvegicus [35] = assay: Effect on urinary excretion potassium and sodium after oral administration of 0.4 mg/kg to rats(potassium and sodium excretion in control rat is 0.267+/-0.044); assay type: functional, Urine
# Rattus norvegicus [36] = assay: Urea nitrogen concentration measured after intraperitoneal administration of 0.1 mg/kg of compound to rats(vehicle 141.3+/-8.3); assay type: functional
# Rattus norvegicus [37] = assay: Percent inhibition of Urea nitrogen by the compound given as ratio of UN value in treated to vehicle treated ones after intraperitoneal administration of 0.1 mg/kg of compound to rats(vehicle 141.3+/-8.3); assay type: functional; conditions: ip
# Rattus norvegicus [38] = assay: Percent inhibition of Urea nitrogen by the compound given as ratio of UN value in treated to vehicle treated ones after intraperitoneal administration of 0.01 mg/kg of compound to rats(vehicle 130.6+/-4.1); assay type: functional; conditions: ip
# Rattus norvegicus [39] = assay: Serum creatinine concentration measured after intraperitoneal administration of 1 mg/kg of compound to rats(vehicle 4.82+/-0.17); assay type: functional
# Rattus norvegicus [40] = assay: Ratio of urinary excretion value (urinary volume) in treated rats to that in control rats, at a peroral dose of 0.4 mg/Kg; assay type: functional, Urine
# Rattus norvegicus [41] = assay: Serum creatinine concentration measured after intraperitoneal administration of 0.01 mg/kg of compound to rats(vehicle 4.50+/-0.24); assay type: functional
# Rattus norvegicus [42] = assay: Urea nitrogen concentration measured after intraperitoneal administration of 0.01 mg/kg of compound to rats(vehicle 130.6+/-4.1); assay type: functional
# Rattus norvegicus [43] = assay: Percent inhibition of serum creatinine by the compound given as ratio of Cr value in treated to vehicle treated ones after intraperitoneal administration of 0.01 mg/kg of compound to rats(vehicle 4.50+/-0.24); assay type: functional; conditions: ip
# Rattus norvegicus [44] = assay: Ratio of urinary excretion value (Na+ concentration) in treated rats to that in control rats, at a peroral dose of 0.4 mg/Kg; assay type: functional, Urine
# Rattus norvegicus [45] = assay: Oral diuretic activity was measured after oral administration of 0.4 mg/kg to rats(control volume is 1.72+/-0.31); assay type: functional, Urine
# Rattus norvegicus [46] = assay: Effect on urinary excretion potassium and sodium after oral administration of 1.6 mg/kg to rats(potassium and sodium excretion in control rat is 0.169+/-0.012); assay type: functional, Urine
structure (smiles),measurement,setting,value
CC(C)Cn1c(=O)n(C)c(=O)c2[nH]c(C3CCCC3)nc21,T/C,Rattus norvegicus [1],2.12
same,inhibition in vivo at 0.1 mg/kg,Rattus norvegicus [2],45%
same,Urine volume,Rattus norvegicus [3],1.31 ml 6hr-1 100g-1
same,Na+/K+,Rattus norvegicus [4],1.55
same,Na+/K+,Rattus norvegicus [5],1.22
same,UN,Rattus norvegicus [6],106.4 mg/dL
same,inhibition in vivo at 1 mg/kg,Rattus norvegicus [7],36%
same,Na,Rattus norvegicus [8],0.257 m equiv 6hr-1 100g-1
same,inhibition in vivo at 0.1 mg/kg,Rattus norvegicus [9],35%
same,Urine volume,Rattus norvegicus [10],1.97 ml 6hr-1 100g-1
same,Na,Rattus norvegicus [11],0.308 m equiv 6hr-1 100g-1
same,T/C,Rattus norvegicus [12],1.72
same,inhibition in vivo at 1 mg/kg,Rattus norvegicus [13],40%
same,T/C,Rattus norvegicus [14],1.14
same,inhibition in vivo at 0.01 mg/kg,Rattus norvegicus [15],26%
same,Na,Rattus norvegicus [16],0.379 m equiv 6hr-1 100g-1
same,Cr,Rattus norvegicus [17],2.54 mg/dL
same,Cr,Rattus norvegicus [18],2.79 mg/dL
same,T/C,Rattus norvegicus [19],1.35
same,Ki,Adenosine A2 receptor,880 nM
same,inhibition in vivo at 0.01 mg/kg,Rattus norvegicus [20],25%
same,Urine volume,Rattus norvegicus [21],1.59 ml 6hr-1 100g-1
same,T/C,Rattus norvegicus [22],2.12
same,Na+/K+,Rattus norvegicus [23],1.57
same,Ki,Adenosine receptor A1,33 nM
same,UN,Rattus norvegicus [24],107.3 mg/dL
same,T/C,Rattus norvegicus [25],2.19
same,Cr,Rattus norvegicus [26],3.08 mg/dL
same,UN,Rattus norvegicus [27],109.5 mg/dL
CCn1c(=O)c2nc(C34CC5CC(CC3C5)C4)[nH]c2n(CC)c1=O,inhibition in vivo at 0.1 mg/kg,Rattus norvegicus [28],63%
same,inhibition in vivo at 1 mg/kg,Rattus norvegicus [29],56%
same,Na+/K+,Rattus norvegicus [30],1.29
same,UN,Rattus norvegicus [31],65.9 mg/dL
same,inhibition in vivo at 1 mg/kg,Rattus norvegicus [32],57%
same,Urine volume,Rattus norvegicus [33],2.9 ml 6hr-1 100g-1
same,Cr,Rattus norvegicus [34],1.44 mg/dL
same,Na,Rattus norvegicus [35],0.356 m equiv 6hr-1 100g-1
same,Ki,Adenosine A2 receptor,1600 nM
same,UN,Rattus norvegicus [36],44.5 mg/dL
same,T/C,Rattus norvegicus [22],2.99
same,inhibition in vivo at 0.1 mg/kg,Rattus norvegicus [37],68%
same,Na+/K+,Rattus norvegicus [23],1.97
same,T/C,Rattus norvegicus [25],2.92
same,inhibition in vivo at 0.01 mg/kg,Rattus norvegicus [38],37%
same,Cr,Rattus norvegicus [39],2.09 mg/dL
same,T/C,Rattus norvegicus [40],1.33
same,Cr,Rattus norvegicus [41],2.82 mg/dL
same,UN,Rattus norvegicus [42],81.7 mg/dL
same,inhibition in vivo at 0.01 mg/kg,Rattus norvegicus [43],37%
same,T/C,Rattus norvegicus [44],1.33
same,Urine volume,Rattus norvegicus [45],2.29 ml 6hr-1 100g-1
same,Na,Rattus norvegicus [46],0.492 m equiv 6hr-1 100g-1
